Data from patent publication US12568969B2, “Pyridine compounds for controlling invertebrate pests” (FMC Corporation, priority 2020, dated 2026).

Legend:
[1] = system: corn planthopper (Peregrinus maidis (Ashmead)); assay: whole plant or invertebrate; assay type: in vivo; conditions: Peregrinus maidis, 144 h, 6 days; for mortality at 50 ppm: sprayed at 50 ppm; for mortality at 250 ppm: sprayed at 250 ppm; for mortality at 10 ppm: sprayed at 10 ppm
Method: (§1) Test compounds were formulated using a solution containing 10% acetone, […] and 300 ppm Activator 909 non-ionic surfactant (Loveland Products, Loveland, Colorado, USA). The formulated compounds were applied in 1 mL of liquid through an atomizer nozzle positioned 1.27 cm (0.5 inches) above the top of each test unit. Test compounds were sprayed at the rates indicated, and each test was replicated three times.
For evaluating control of corn planthopper (Peregrinus maidis (Ashmead)) through contact and/or systemic means, the test unit consisted of a small open container with a 3-4-day-old corn (maize) plant inside. White sand was added to the top of the soil prior to application of the test compound.
Test compounds were formulated and sprayed at 250 and/or 50 ppm and/or 10 ppm. After spraying of the formulated test compound, the test units were allowed to dry for 1 h before they were post-infested with ˜15-20 nymphs (18-to-21-day-old). A black, screened cap was placed on the top of each test unit, and the test units were held for 6 days in a growth chamber at 22-24° C. and 50-70% relative humidity. Each test unit was then visually assessed for insect mortality.

[2] = system: cotton melon aphid (Aphis gossypii (Glover)); assay: whole plant or invertebrate; assay type: in vivo; conditions: Aphis gossypii, 144 h, 6 days; for mortality at 250 ppm: sprayed at 250 ppm; for mortality at 50 ppm: sprayed at 50 ppm
Method: as §1
[…] This was pre-infested with 30-40 insects on a piece of leaf according to the cut-leaf method, and the soil of the test unit was covered with a layer of sand.
Test compounds were formulated and sprayed at 250 and/or 50 ppm. After spraying, the test units were maintained in a growth chamber for 6 days at 19° C. and 70% relative humidity. Each test unit was then visually assessed for insect mortality.

| SMILES | mortality at 50 ppm [1] [%] | mortality at 250 ppm [1] [%] | mortality at 10 ppm [1] [%] | mortality at 250 ppm [2] [%] | mortality at 50 ppm [2] [%] |
| --- | --- | --- | --- | --- | --- |
| Cc1cnn(-c2cncc(F)c2C(F)c2ccc(SC(F)(F)F)cc2)c1 (centres unmarked) [Compound 6] | ≥ 80 | ≥ 80 |  |  |  |
| FC(c1ccc(OC(F)(F)F)cc1)c1ccncc1-n1ccnn1 (centres unmarked) [Compound 10] | ≥ 80 | ≥ 80 |  |  |  |
| Fc1cncc(-c2ccc[nH]2)c1C(F)c1ccc(OC(F)(F)F)cc1 (centres unmarked) [Compound 26] | ≥ 80 | ≥ 80 |  |  |  |
| Fc1cncc(-c2nc[nH]n2)c1C(F)c1ccc(OC(F)(F)F)cc1 (centres unmarked) [Compound 40] | ≥ 80 |  |  |  |  |
| Fc1cncc(-c2ccsc2)c1C(F)c1ccc(OC(F)(F)F)cc1 (centres unmarked) [Compound 46] | ≥ 80 |  | ≥ 80 |  |  |
| Fc1cncc(-c2cscn2)c1C(F)c1ccc(OC(F)(F)F)cc1 (centres unmarked) [Compound 49] | ≥ 80 | ≥ 80 | ≥ 80 | ≥ 80 |  |
| COC(c1ccc(OC(F)(F)F)cc1)c1c(Cl)cncc1-n1cccn1 (centres unmarked) [Compound 52] |  |  |  | ≥ 80 |  |
| CCn1ccc(-c2cncc(F)c2C(F)c2ccc(OC(F)(F)F)cc2)n1 (centres unmarked) [Compound 57] | ≥ 80 |  |  | ≥ 80 |  |
| O=S(=O)(c1ccc(C(F)c2c(Br)cncc2-n2nccn2)cc1)C(F)(F)F (centres unmarked) [Compound 64] | ≥ 80 |  |  | ≥ 80 |  |
| COC(c1ccc(OC(F)(F)F)cc1)c1c(Br)cncc1-n1nccn1 (centres unmarked) [Compound 65] | ≥ 80 |  |  |  |  |
| [O-][S+](c1ccc(C(F)c2c(F)cncc2-n2cccn2)cc1)C(F)(F)F (centres unmarked) [Compound 73] |  |  |  | ≥ 80 | ≥ 80 |
| COC(c1ccc(SC(F)(F)F)cc1)c1c(F)cncc1-c1nccs1 (centres unmarked) [Compound 75] |  | ≥ 80 |  | ≥ 80 |  |
| COC(c1ccc(SC(F)(F)F)cc1)c1c(F)cncc1-c1ncco1 (centres unmarked) [Compound 76] | ≥ 80 | ≥ 80 |  | ≥ 80 | ≥ 80 |
| COC(c1ccc(SC(F)(F)F)cc1)c1c(F)cncc1-c1cc(C)no1 (centres unmarked) [Compound 82] |  | ≥ 80 |  |  |  |
| FC(c1ccc(SC(F)(F)F)cc1)c1c(Br)cncc1-n1cccn1 (centres unmarked) [Compound 85] | ≥ 80 | ≥ 80 |  | ≥ 80 | ≥ 80 |
| Fc1cncc(C2OCCCO2)c1C(F)c1ccc(SC(F)(F)F)cc1 (centres unmarked) [Compound 98] | ≥ 80 | ≥ 80 | ≥ 80 |  |  |
| FC(c1ccc(SC(F)(F)F)cc1)c1c(Cl)cncc1-n1cccn1 (centres unmarked) [Compound 102] |  |  |  | ≥ 80 | ≥ 80 |
| FC(c1ccc(SC(F)(F)F)cc1)c1c(Cl)cncc1-c1ncno1 (centres unmarked) [Compound 106] | ≥ 80 | ≥ 80 | ≥ 80 | ≥ 80 | ≥ 80 |
| CC(C)(C)c1ccc(C(F)c2c(Cl)cncc2-n2nccn2)cc1 (centres unmarked) [Compound 110] | ≥ 80 | ≥ 80 | ≥ 80 |  |  |
| Fc1cncc(-c2cccs2)c1C(F)c1ccc(SC(F)(F)F)cc1 (centres unmarked) [Compound 111] | ≥ 80 | ≥ 80 | ≥ 80 | ≥ 80 | ≥ 80 |
| Cc1sccc1-c1cncc(F)c1C(F)c1ccc(SC(F)(F)F)cc1 (centres unmarked) [Compound 113] | ≥ 80 | ≥ 80 | ≥ 80 | ≥ 80 | ≥ 80 |
| Cc1cscc1-c1cncc(F)c1C(F)c1ccc(SC(F)(F)F)cc1 (centres unmarked) [Compound 114] | ≥ 80 | ≥ 80 | ≥ 80 |  |  |
| COC(c1ccc(OC(F)(F)F)cc1)c1c(F)cncc1-c1ncno1 (centres unmarked) [Compound 138] | ≥ 80 | ≥ 80 |  |  |  |
| COC(c1ccc(C(C)(C)C)cc1)c1c(F)cncc1-c1ncno1 (centres unmarked) [Compound 139] | ≥ 80 | ≥ 80 |  |  |  |
